Assay [1] addresses T1, S. pombe Dcp1-Dcp2 complex (Dcp2 1-243, Dcp1 1-127; D1D2) (Schizosaccharomyces pombe, UniProt O13828).
T1 sequence (O13828 1-243): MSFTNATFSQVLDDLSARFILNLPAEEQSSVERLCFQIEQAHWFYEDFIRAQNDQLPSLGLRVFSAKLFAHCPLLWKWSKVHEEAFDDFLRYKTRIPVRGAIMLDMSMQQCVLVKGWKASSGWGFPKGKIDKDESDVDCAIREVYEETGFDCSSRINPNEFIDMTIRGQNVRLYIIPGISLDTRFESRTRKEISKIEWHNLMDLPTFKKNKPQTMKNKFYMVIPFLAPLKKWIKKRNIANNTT
T1 sequence (Q9P805 1-127 partner): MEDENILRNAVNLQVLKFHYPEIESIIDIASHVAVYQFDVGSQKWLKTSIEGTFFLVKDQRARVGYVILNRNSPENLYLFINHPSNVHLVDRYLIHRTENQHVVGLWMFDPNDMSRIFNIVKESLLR
The experiment in a line: SAXS, ligand-induced compaction. In kind it is binding. The following applies: 10 mM m7GpppA; pH 7.0, 150 mM NaCl, 50 mM HEPES, 2 mM DTT.

Assay [2] has as its target T2, S. pombe Dcp2 regulatory domain (residues 1-94) (Schizosaccharomyces pombe, UniProt O13828).
T2 sequence (O13828 1-94): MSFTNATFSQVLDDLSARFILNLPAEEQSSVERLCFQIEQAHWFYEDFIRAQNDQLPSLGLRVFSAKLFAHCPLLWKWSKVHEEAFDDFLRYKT
Nature of the assay: […]-HSQC NMR titration. In kind it is binding.

Assay [3] deals with T3, S. pombe Dcp2 catalytic domain (residues 95-243) (Schizosaccharomyces pombe, UniProt O13828).
T3 sequence (O13828 95-243): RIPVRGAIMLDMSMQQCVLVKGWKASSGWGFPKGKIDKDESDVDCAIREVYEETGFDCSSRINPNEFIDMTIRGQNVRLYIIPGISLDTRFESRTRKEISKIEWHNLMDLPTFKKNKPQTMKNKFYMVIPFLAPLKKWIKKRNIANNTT
Nature of the assay: […]-HSQC NMR titration. In kind it is binding.

Assay [4] concerns the target T4, S. pombe Dcp2 (spDcp2) 1–243 (S. pombe, UniProt O13828 1-243).
T4 sequence: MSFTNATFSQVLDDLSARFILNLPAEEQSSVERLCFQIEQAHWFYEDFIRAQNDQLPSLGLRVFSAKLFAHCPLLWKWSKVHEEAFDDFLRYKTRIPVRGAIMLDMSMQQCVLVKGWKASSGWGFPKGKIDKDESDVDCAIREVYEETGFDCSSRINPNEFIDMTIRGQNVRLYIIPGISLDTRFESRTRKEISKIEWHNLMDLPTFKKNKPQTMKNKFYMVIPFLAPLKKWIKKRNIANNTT
The experiment in a line: SEC. For orientation: In gel filtration, larger molecules generally elute earlier.

Another assay concerns the target S. pombe Dcp2 1–243 W43A (S. pombe, UniProt O13828 1-243, W43A). The experiment in a line: SEC.
Assay [5] addresses S. pombe Dcp2 1–243 R167Q (S. pombe, UniProt O13828 1-243, R167Q). Nature of the assay: SEC.

For the molecule `C[n+]1cn([C@@H]2O[C@H](COP(=O)(O)OP(=O)(O)OP(=O)(O)OC[C@H]3O[C@@H](n4cnc5c(N)ncnc54)[C@H](O)[C@@H]3O)[C@@H](O)[C@H]2O)c2nc(N)[nH]c(=O)c21` [m^7GpppA], the “SAXS, ligand-induced compaction” value in assay [1] was “reveals a compaction in the presence of cap-analog m^7GpppA that is small but reproducible”.

Broadly, the Kd is the equilibrium constant for the complex coming apart. Molecule `Nc1nc2c(ncn2[C@@H]2O[C@H](COP(=O)(O)OP(=O)(O)O)[C@@H](O)[C@H]2O)c(=O)[nH]1` [GDP] yielded a Kd in assay [2] of approximately 40 mM.

Consider `C[n+]1cn([C@@H]2O[C@H](COP(=O)(O)OP(=O)(O)O)[C@@H](O)[C@H]2O)c2nc(N)[nH]c(=O)c21` [m^7GDP], for which the equilibrium dissociation constant (Kd) is 12 mM in assay [3] and approximately 12 mM in assay [2].

B1: S. pombe Dcp1 1–127 (natural protein)
chain: MEDENILRNAVNLQVLKFHYPEIESIIDIASHVAVYQFDVGSQKWLKTSIEGTFFLVKDQRARVGYVILNRNSPENLYLFINHPSNVHLVDRYLIHRTENQHVVGLWMFDPNDMSRIFNIVKESLLR
For the molecule B1, the binding result (in assay [4]; with S. pombe Dcp2 1–243 W43A; in assay [5]) was “binds” in each case.

For the origin of these results see article PMC2933276 (Nature structural & molecular biology, 2010).
